# Results: patent publication US9511120B2, “Use of the angiotensin-(1-9) peptide or derivatives thereof, use of vectors overexpressing the ACE2 enzyme that produces angiotensin-(1-9) for preparing medicaments useful for preventing, reverting, inhibiting and/or reducing hypertension and/or inducing vasodilation” (PONTIFICA UNIVERSIDAD CATÓLICA DE CHILE, priority 2012, dated 2016)
# Where no end group is shown, it is not given here.
# Columns and labels:
# [1] = test system: thoracic aortas of hypertensive rats by pressure overload; assay: Goldblatt model: aortic hypertrophy by morphometry; format: in vivo, rat; details: GB rats, thoracic aorta
# Text: (§1) Lewis normotensive rats (weight 150±10 g), which were separated randomly into the experimental hypertension model group or GB (Ocaranza et al. J. Hypertens. 20:413-20, 2002) or control group (S) were used. The latter corresponded to pseudo-operated animals. All animals were maintained under controlled conditions of light and darkness and had free access to food and water. Four weeks after surgery and at a blood pressure above 140 mmHg, GB rats were randomized for the chronic administration of angiotensin-(1-9) through an osmotic pump (602 ng kg^−1min^−1) via the jugular vein during two weeks. The animals were euthanized after 6 weeks post-surgery.
# (§2) Aortic hypertrophy was determined by morphometry. Sections of the descending aorta of 5 μm thick, which were previously fixed in Bouin (1.3% picric acid, 9.5% formaldehyde and 4.8% acetic acid) for 24 hours, embedded in paraffin and stained with hematoxylin-eosin, were used, to be examined later in a light microscope as described by Igase et al. (Am. J. Physiol. 289:H1013-9, 2005). Briefly, images of the aortas were captured by a video camera (Nikon) fixed to a microscope (Nikon), and projected on a monitor; using the software Nis-Element. Lumen areas (LA) and total areas (TA) were calculated and recorded. The tunica media area (TMA) was obtained from the difference between the TA and LA of the aorta. The tunica media thickness (TMT) was defined as the region delimited by the external elastic lamina (EEL) and internal elastic lamina (IEL).
# [2] = test system: hypertensive rats by administration of angiotensin II; assay: Hypertension induced by angiotensin II infusion: body mass, cardiac mass, systolic blood pressure; format: in vivo, rat
# Description: (§3) Rats were subjected to the model of angiotensin II infusion (Grobe et al.: Am. J. Physiol. 292: H736-42, 2007). The animals were separated randomly into the following experimental groups: controls (Sham or pseudo-operated), infused with angiotensin II (300 ng/kg min), infused with angiotensin II and angiotensin-(1-9) (300 ng/kg min and 602 ng/kg min, respectively), and then infused with angiotensin II, angiotensin-(1-9) and the angiotensin-(1-7) receptor antagonist, A779 (300 ng/kg min, 602 ng/kg min, and 100 ng/kg min, respectively). In all cases the pumps operated at a flow of 0.5 μL/h and were implanted in the right jugular vein through a catheter fitted in an intrascapular subcutaneous pocket under anesthesia with ketamine HCl/xylazine (35 and 7 mg/kg i.p., respectively), for a period of 14 days.
# (§4) Systolic blood pressure (SBP) was measured by the tail plethysmographic method in the animals. To such end, rats were lightly anesthetized with ethyl ether. The measurement was performed once a week by researchers blind to the treatment (Ocaranza et al. J. Hypertens. 20:413-20, 2002).
# (§5) The degree of cardiac hypertrophy (CH) was measured by the ratio of the cardiac mass (CM), the body mass (BM) and relative cardiac mass (RCM; [CM/BM]*100) (Ocaranza et al., J. Hypertens. 28:1054-1064, 2010).
# Four experimental groups of rats were established as described in Example 1. Group 1 corresponds to rats which were infused with saline (Sham). Group 2 corresponds to rats which were infused with only angiotensin II. Group 3 correspond to rats which were co-infused with angiotensin II and angiotensin-(1-9). And Group 4 corresponds to rats which were co-infused with angiotensin II, angiotensin-(1-9) and A779.
# [3] = test system: MCP-1 mRNA; assay: Angiotensin II infusion model: MCP-1 mRNA levels in the aortic wall; format: in vivo, rat
# Description: as §3
# The procedure described by Ocaranza et al. (Hypertension 48:572-8, 2006) was followed. Briefly, total RNA was isolated from the aorta using the trizol method and quantified by spectroscopy at 260 nm/280 nm. The cDNA was obtained by reverse transcription from 1.5 μg of total RNA treated with DNAse. […] The band intensity was quantified by densitometry and normalized to the 18S ribosomal RNA band.
# [4] = test system: hypertensive rats by clamping the renal artery (Goldblatt model); assay: Goldblatt model (GB, 2 kidneys, 1 clip): body weight, cardiac mass, systolic blood pressure; format: in vivo, rat
# Text: as §1, §4, §5
# [5] = test system: hypertensive myocardial fibrosis by pressure overload; assay: Goldblatt model: volume fraction of total collagen in the ventricle (picrosirius red); format: in vivo, rat; details: GB rats
# Text: as §1
# Sections of 5 μm of ventricle, previously included in Bouin, which were treated with picrosirius red, were used. The tissue was examined under light microscopy, images were captured with a Nikon DS Fi1 camera and projected on a monitor. The Matlab program was used to measure the interstitial collagen content according to the procedure described by Ocaranza et al. (J. Cardiovasc. Pharmacol. 40:246-54, 2002).
# [6] = test system: thoracic aortas of hypertensive rats by angiotensin II infusion; assay: Angiotensin II infusion model: aortic hypertrophy by morphometry; format: in vivo, rat; details: thoracic aorta, 14 days infusion
# Description: as §3, §2
# [7] = test system: cardiomyocyte hypertrophy induced by Ang II in vivo; assay: Angiotensin II infusion model: cardiomyocyte hypertrophy (area and perimeter); set-up: species or system rat
# Description: as §3
# (§6) The middle portion of the left ventricle (LV) was dehydrated at room temperature for 24 h in Bouin and then embedded in paraffin. Sections of 10-15 μm thick were taken and stained with hematoxylin-eosin, to be examined later in a light microscope in order to observe their general morphological characteristics. Cardiomyocyte size was determined according to Nakamura et al. (Circulation, 98:794-9, 1998). Briefly, images of the cells were captured using a Nikon DS Fi1 camera and projected on a monitor using a software program. The cardiomyocyte area and perimeter were measured and recorded, using the Nis-Element program (Ocaranza et al. J. Hypertens., 28:1054-64, 2010). All measurements were performed by a blinded observer, and at least 80 images of cells per animal, which were randomly selected, were analyzed.
# [8] = test system: cardiomyocyte hypertrophy of hypertensive rats by pressure overload; assay: Goldblatt model: cardiomyocyte area and perimeter; format: in vivo, rat; details: GB rats
# Text: as §1
# as §6, with “Briefly, images of the cells were captured using a Nikon DS Fi1 camera and projected on a monitor using a software program.” left out
# [9] = co-administered with angiotensin II
sequence,measurement,setting,value
DRVYIHPFH,increase in TMA,[1],reduced significantly
same,increase in TMA/AL,[1],reduced significantly
same,increase in TMT,[1],reduced significantly
same,SBP 1st week,[2]; 1st week of infusion,141 ± 9 mmHg
same,SBP 2nd week,[2]; 2nd week of infusion,139 ± 11 mmHg
same,Initial SBP,"[2]; baseline, tail plethysmography",123 ± 11 mmHg
same,decrease of SBP as compared to angiotensin II,[2]; co-administration with angiotensin II,10%
same,CM,"[2]; rats, infusion for 14 days",984 ± 26 mg
same,RCM (MV/MC),"[2]; rats, infusion for 14 days",386 ± 36
same,MCP-1 mRNA levels,[3],no differences
same,decrease of systolic blood pressure,"[4]; GB rats, from week 1 after the administration, maintained 2 weeks",15%
same,CM,"[4]; GB rats, two weeks treatment",0.37 ± 0.02 ^ g
same,RCM,"[4]; GB rats, two weeks treatment",0.84 ± 0.04 mg/g
same,RCM,"[4]; hypertensive rats vs. 400±1 in GB, not statistically significant",380±2
same,BW (as printed in text),[4]; rats with HTN vs. untreated GB animals 0.93±0.04,0.84 ± 0.03 g
same,decrease of VFTC as compared to untreated hypertensive rats,[5],41%
same,volume fraction of total collagen (VFTC),[5]; untreated GB 6.5±1,3.8%
same,ratio of tunica media area (TMA) to LA,[6],significantly prevented the increase
same,thickness of the tunica media (TMT),[6],significantly prevented the increase
same,reduction in cell area as compared to the group infused with angiotensin II alone,[7]; [9],20%
same,reduction in cell perimeter as compared to the group infused with angiotensin II alone,[7]; [9],11%
same,cardiomyocyte cell area,"[7]; left ventricle, two weeks",227±2 μm^2
same,cardiomyocyte perimeter,"[7]; left ventricle, two weeks",59.1±0.3 μm
same,decrease of cardiomyocyte area as compared to hypertensive rats,[8],16%
same,decrease of cardiomyocyte perimeter as compared to hypertensive rats,[8],22%
